Article PMC9597602, “Metal Complexes as Antifungals? From a Crowd-Sourced Compound Library to the First In Vivo Experiments” (JACS Au, 2022)
“Also recorded” adds a separate entry of the source.

Tests used:
[1] = system: Cryptococcus deuterogattii ATCC 32609 VGII; experiment: Antifungal MIC assay, extended panel; type: cell-based; conditions: extended panel, second batch; ≥80 or ≥50% inhibition
[2] = system: Candida glabrata ATCC 90030 NCCLS 84; experiment: Antifungal MIC assay, extended panel; type: cell-based; conditions: extended panel, second batch; ≥80 or ≥50% inhibition
How it was run: (§1)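 YNB broth; inoculum 2.5 × 10^3 CFU/mL final; 35 °C, 36 h, no shaking; MIC at ≥80% inhibition (CLSI M27 score 0–1); n = 4–8.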

[3] = system: Cryptococcus deuterogattii CBS7750 VGII; Serotype B; experiment: Antifungal MIC assay, extended panel; type: cell-based; conditions: extended panel, second batch; ≥80 or ≥50% inhibition
How it was run: as §1

[4] = system: Candida tropicalis ATCC 750; experiment: Antifungal MIC assay, extended panel; type: cell-based; conditions: extended panel, second batch; ≥80 or ≥50% inhibition
How it was run: as §1

G. mellonella larvae = experiment: Galleria mellonella in vivo toxicity assay; conditions: 10 μL of the highest concentration injected, monitored 6 days
Method: Based on criteria of overall antifungal activity, cytotoxicity, and hemolysis as well as compound availability, we selected compounds Co1, Ag2, Eu1, Ir1, Pt1, Pt2, Pt4, Pt5, Au1, Au2, and Au4 to conduct a preliminary in vivo toxicity assay. […] The compounds were dissolved in DMSO and diluted to the highest possible final concentration (Table 3). The larvae were then monitored for 6 days for survival and health using the G. mellonella Health Index Scoring System.[111] […] For the other compounds, no detrimental effects could be observed in the larvae over the monitoring period. […] Nevertheless, factors such as the metabolism, excretion, and/or accumulation of the various metal complexes and their metabolites will still need to be studied more rigorously in rodent models if they are to be advanced into the preclinical pipeline.
The toxicity of compounds was tested in vivo using the G. mellonella model using our previously described methods,[61] Briefly, G. mellonella larvae were reared in a controlled environmental room at Macquarie University, Sydney, Australia, at 30 °C and 65% humidity with a 12-h light/dark cycle. Larvae (200–250 mg) were individually injected with 10 μL of chemical into the last right pro-leg using a 100 μL syringe (Hamilton Ltd.). Each compound was dissolved in DMSO at the maximum concentration given in Table 3 and also diluted in water to final concentrations of 100, 10, and 1 μM. We injected five larvae in triplicate for each of the four dilutions for each compound. Larvae injected with different dilutions of DMSO (10^–1, 10^–2, and 10^–3) were included as negative controls. Following injection, the larvae were incubated at 30 °C and monitored every 24 h for 6 days. Larval performance was assessed according to the G. mellonella Health Index Scoring System.[111] The experiments were repeated over three separate days for biological triplicates.

MRSA = system: MRSA; parameters: method as in PMID 34018686; conditions: G. mellonella infected with MRSA; cited from earlier work
C. albicans (ATCC 90028) [5] = experiment: Galleria mellonella infection (survival) assay; type: in vivo, Candida albicans in Galleria mellonella larvae; conditions: G. mellonella inoculated with C. albicans, 10 μL compound solution, 5 days, vs untreated control
Method: In an initial survival assay, G. mellonella larvae were inoculated with C. albicans (ATCC 90028). The larvae were then injected with 10 μL of the compound solution, and their survival was monitored for the next 5 days. Fluconazole and 10% DMSO injections were used as controls.
The globally available strains for C. albicans and C. neoformans, namely, ATCC 90028 and H99, respectively, were used to assess the antifungal potential of the panel of cobalt complex compounds in the G. mellonella insect model. Each strain was cultured on Sabouraud dextrose agar (SDA) for 24–48 h at 27 °C prior to inoculation. Yeast colonies were then suspended in a phosphate-buffered saline solution (PBS), and cells’ concentrations were adjusted using a Neubauer counting chamber to 5 × 10^7 cells for ATCC 90028 and 1 × 10^8 cells for H99. Compounds were prepared by dissolving in 100% dimethylsulfoxide (DMSO) to 4 or 10 mM depending on compound solubility before being further diluted with water to 0.4 or 1 mM for injection into larvae.
Each group of larvae was subsequently incubated at 37 °C for 2 h in 90 mm Petri dishes. After incubation, larvae were injected with 10 μL of the compound into the last right pro-leg and returned to Petri dishes to incubate at 37 °C for 5 days. In addition to the panel of metal compounds, fluconazole (FLC) was included as a positive control (1 and 0.4 mM) and reference antifungal. Larvae inoculated with just the fungal strains and the fungal strains with 10% DMSO were also included as comparison groups. Larvae injected concurrently with PBS instead of fungal inoculum and compounds were used as negative controls. All larvae were checked daily for survival.

C. albicans (ATCC 90028) [6] = experiment: Galleria mellonella infection (log CFU reduction) assay; type: in vivo, Candida albicans in Galleria mellonella larvae; conditions: 1 mM, 10 μL; Pt1 19 mg/kg, Pt2 28 mg/kg, fluconazole 12 mg/kg; 24 h at 37 °C; vs 10% DMSO control
Method: To quantify the possible protective effect of Pt1 and Pt2 in G. mellonella challenged with C. albicans, we conducted a CFU reduction assay with these compounds. Briefly, G. mellonella larvae were inoculated with C. albicans (ATCC 90028) and incubated for 2 h at 37 °C. The larvae were then injected with 10 μL of the corresponding compound solution (1 mM) or control (same concentration and injection volume) and incubated for 24 h at 37 °C. The larvae were then anesthetized, macerated, and serially diluted onto SDA (Sabouraud dextrose agar) plates. After 48 h of incubation, the CFUs were counted.
A log CFU reduction assay was conducted for two compounds and two control groups. […] Fluconazole (1 mM) and 10% DMSO were used once again as the control groups. Fifteen G. mellonella larvae (200–250 mg) per test group were selected and inoculated with 10 μL of C. albicans at a concentration of 5 × 10^7 cells/mL and incubated on 90 mm Petri dishes in groups of five larvae for 2 h at 37 °C. Larvae were then subsequently injected with 10 μL of the corresponding test compound or control and returned to Petri dishes to incubate for 24 h at 37 °C.
Larvae were then anesthetized on ice for 5 to 10 min before being placed in individual prefilled 2 mL tubes with 3.0 mm diameter zirconium beads with 1000 μL of PBS. They were then macerated briefly using the BeadBug 6 Homogenizer (Benchmark Scientific, USA) in two 45 s intervals at 4350 rpm. After homogenization, serial dilutions of 1:100, 1:1000, and 1:10,000 were then made for each larva/tube, and 100 μL of the dilution was spread plated onto SDA plates with 50 μg/mL chloramphenicol. Plates were then incubated at 27 °C for 48 h before CFUs were counted.
A one-way ANOVA was conducted to compare the CFU counts for Pt1, Pt2, and both controls. After a significant difference was observed between the groups, a subsequent Tukey’s pairwise test was used to compare the individual test groups with each other.

[7] = Stability by NMR / UV-vis; type: physicochemical; conditions: for stability in DMSO solution, NMR or UV–vis spectra: after 24 h; for stability of solid samples, NMR spectra: room temperature, protected from light, 2 years
Method: The ligands for these complexes (Ligand-Ag1 and Ligand-Ag2 in the SI) were originally studied for their solvatochromism and were later coordinated with silver to investigate their potential antimicrobial activity.[84] The carboxylate ion is able to coordinate to silver with monodentate, chelating, and/or bridging modes. […] The stability of complexes Ag1 and Ag2 was assessed.
One concern with Pt1 is its potential stability under biological conditions. […] Future work will be aimed toward more comprehensive examinations of the chemical and biological stability of these and related compounds, as well as investigations into their mode of action.

[8] = system: Candida glabrata ATCC 90030 NCCLS 84; experiment: Antifungal MIC assay, extended panel; type: cell-based; conditions: extended panel; 50% inhibition, MIC score 2
[9] = system: Cryptococcus deuterogattii CBS7750 VGII; Serotype B; experiment: Antifungal MIC assay, extended panel; type: cell-based; conditions: extended panel; 50% inhibition, MIC score 2
[10] = system: Candida tropicalis ATCC 750; experiment: Antifungal MIC assay, extended panel; type: cell-based; conditions: extended panel; 50% inhibition, MIC score 2
[11] = system: Cryptococcus deuterogattii ATCC 32609 VGII; experiment: Antifungal MIC assay, extended panel; type: cell-based; conditions: extended panel; 50% inhibition, MIC score 2

Row | MIC Candida glabrata ATCC 90030 [2] | MIC Cryptococcus deuterogattii CBS7750 [3] | MIC Candida tropicalis ATCC 750 [4] | MIC50 Candida glabrata ATCC 90030 [8] | MIC50 Cryptococcus deuterogattii CBS7750 [9] | MIC50 Candida tropicalis ATCC 750 [10] | MIC50 Cryptococcus deuterogattii ATCC 32609 [11] | stability in DMSO solution, NMR or UV–vis spectra [7] | stability of solid samples, NMR spectra [7] | MIC [1] | SMILES | MIC Cryptococcus deuterogattii ATCC 32609 [1] | MIC [2] | MIC [3] | MIC [4] | toxicity (G. mellonella larvae) | reduction in bacterial load (MRSA) | larva survival (C. albicans (ATCC 90028) [5]) | reduction in CFUs (C. albicans (ATCC 90028) [6]) | stability in DMSO, 1H NMR spectrum ([7]; 7 days at room temperature)
1 |  |  |  |  |  |  |  |  |  |  | CC(=NN=C(N)[S-])C(C)=NN=C(N)[S-].O=[N+]([O-])[O-].[Co+3].c1c[nH]cn1.c1c[nH]cn1 [Co1] | 0.78 to 1.56 µM | 100 µM | 1.56 µM | 0.39 µM | nontoxic |  |  |  | 
2 | 12.5 to 25 µM | ≤0.78 to 1.56 µM | 12500 to 25000 nM |  |  |  |  |  |  |  | CC(C)C([O][Pt][Cl])C1=CCCC=CCC1 (centres unmarked) [Pt4] | 3.12 to 6.25 µM |  |  |  | nontoxic |  |  |  | 
3 |  |  | ≤6 to 12 nM | ≤ 6 nM | ≤ 6 nM | ≤ 6 nM | ≤6 to 24 nM | no changes | identical NMR spectra |  | COc1ccc(/C=C/C2=NN(c3ccc(C(=O)[O][Ag])cc3)C(c3ccc(OC)c(OC)c3)C2)cc1OC.COc1ccc(/C=C/C2=NN(c3ccc(C(=O)[O][Ag])cc3)C(c3ccc(OC)c(OC)c3)C2)cc1OC (racemic) [Ag1, (Ε)-1-(4-Carboxyphenyl)-5-(3,4-dimethoxyphenyl)-3-(3,4-dimethoxystyryl)-2-pyrazoline silver(I) complex] | 0.006 to 0.024 µM | ≤0.006 µM | 0.006 µM |  |  |  |  |  | 
4 | 0.006 to 0.195 µM | 0.006 to 0.098 µM | ≤6 to 49 nM | 6 to 195 nM | ≤6 to 49 nM | ≤6 to 49 nM | ≤6 to 98 nM | no changes | identical NMR spectra |  | O=C([O][Ag])c1ccc(N2N=C(/C=C/C=C/c3ccccc3)CC2/C=C/c2ccccc2)cc1.O=C([O][Ag])c1ccc(N2N=C(/C=C/C=C/c3ccccc3)CC2/C=C/c2ccccc2)cc1 (racemic) [Ag2, 1-(4-Carboxyphenyl)-3-{(1E,3E)-4-phenylbuta-1,3-dien-1-yl}-5-{(E)-styryl}-2-pyrazoline silver(I) complex] | 0.006 to 0.098 µM |  |  |  | nontoxic |  |  |  | 
5 | 0.024 to 0.098 µM | 0.024 to 0.098 µM | ≤6 to 49 nM | 12 to 49 nM | 24 to 98 nM | ≤6 to 49 nM | 24 nM |  |  | 0.024 µM | Cc1ccc2ccc3ccc(C)nc3c2n1.Cc1ccc2ccc3ccc(C)nc3c2n1.O=C([O][Eu]([O]C(=O)c1ccccc1F)[O]C(=O)c1ccccc1F)c1ccccc1F [Eu1] |  |  |  |  | nontoxic |  |  |  | 

Row | SMILES | MIC Candida glabrata ATCC 90030 [2] | MIC Cryptococcus deuterogattii CBS7750 [3] | MIC Candida tropicalis ATCC 750 [4] | MIC50 Candida glabrata ATCC 90030 [8] | MIC50 Cryptococcus deuterogattii CBS7750 [9] | MIC50 Candida tropicalis ATCC 750 [10] | MIC50 Cryptococcus deuterogattii ATCC 32609 [11] | stability in DMSO solution, NMR or UV–vis spectra [7] | stability of solid samples, NMR spectra [7] | MIC [1] | MIC Cryptococcus deuterogattii ATCC 32609 [1] | MIC [2] | MIC [3] | MIC [4] | toxicity (G. mellonella larvae) | reduction in bacterial load (MRSA) | larva survival (C. albicans (ATCC 90028) [5]) | reduction in CFUs (C. albicans (ATCC 90028) [6]) | stability in DMSO, 1H NMR spectrum ([7]; 7 days at room temperature)
6 | C1=CCCC=CCC1.[Cl][Pt][Cl] [Pt1] |  | 1.56 to 3.13 µM |  |  |  |  |  |  |  |  | 3.125 to 6.25 µM | 25 µM |  | 25 µM | nontoxic | did not elicit a significant reduction in bacterial load | significant larva survival; also recorded: showed some efficacy | 0.7 log10 | no changes of the ^1H NMR spectrum
7 | C1=CCCC=CCC1.[I][Pt][I] [Pt2] |  | ≤0.78 to 3.13 µM |  |  |  |  |  |  |  |  | 6.25 to 12.5 µM | 50 µM |  | 50 µM | nontoxic |  | significant larva survival; also recorded: showed some efficacy | CFUs comparable to the DMSO control | 
